Measurements: PubChem BioAssay AID1671224

Biological target: Tyrosine-protein kinase BTK (Homo sapiens) (UniProt Q06187)
Experiment: inhibitors of human BTK tyrosine kinase activity – biochemical, Z'-LYTE, FRET readout, direct format, dose response (AID 1671224)
Conditions: recombinant BTK, Z'-LYTE FRET peptide phosphorylation

Chain of Tyrosine-protein kinase BTK (Homo sapiens) (Q06187 whole entry, looked up): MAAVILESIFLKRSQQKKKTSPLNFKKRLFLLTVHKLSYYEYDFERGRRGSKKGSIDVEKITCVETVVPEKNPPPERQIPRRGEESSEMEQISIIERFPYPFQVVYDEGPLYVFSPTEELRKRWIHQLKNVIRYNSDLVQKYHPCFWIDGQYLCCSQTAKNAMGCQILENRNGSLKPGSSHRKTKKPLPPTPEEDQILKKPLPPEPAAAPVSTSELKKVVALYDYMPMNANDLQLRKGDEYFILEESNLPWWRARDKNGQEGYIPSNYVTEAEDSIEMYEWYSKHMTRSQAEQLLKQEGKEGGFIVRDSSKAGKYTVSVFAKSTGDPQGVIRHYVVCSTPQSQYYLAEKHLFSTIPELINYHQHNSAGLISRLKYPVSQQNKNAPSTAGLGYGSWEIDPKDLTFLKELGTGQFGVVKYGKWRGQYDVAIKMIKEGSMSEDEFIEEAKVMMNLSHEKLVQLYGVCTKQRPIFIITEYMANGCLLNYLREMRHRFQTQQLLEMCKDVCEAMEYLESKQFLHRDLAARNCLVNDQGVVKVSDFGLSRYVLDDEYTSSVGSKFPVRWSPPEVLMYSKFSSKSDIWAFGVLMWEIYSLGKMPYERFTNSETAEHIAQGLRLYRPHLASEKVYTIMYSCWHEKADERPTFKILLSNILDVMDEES

## COc1cc2ncnc(Nc3cccc(Cl)c3)c2cc1OC
  IC50: 3.61 µM
